The structures appear in SMILES notation. Read-outs that look alike come from different tables or passages of the source.

Consider 2 molecules from US8293680B2, “Fungicidal mixtures of triticonazole and difenoconazole” (BASF SE, priority 2007, dated 2012).

One experiment deals with Botrytis cinerea. The experiment in a line: Activity against the grey mold Botrytis cinerea in the microtiterplate test (Botrci). It counts as cell-based. The following applies: solo, MTP, 405 nm, 7 days after inoculation.
The next experiment concerns Pyricularia oryzae. Format: cell-based. The following applies: Pyrior, solo, MTP, 405 nm, 7 days after inoculation.

Regarding `CC1(C)CC/C(=C\c2ccc(Cl)cc2)C1(O)Cn1cncn1` (racemic) [Triticonazol, (±) E-5-(4-chlorobenzylidene)-2,2-dimethyl-1-(1H-1,2,4-triazol-1-ylmethyl)cyclopentanol], the results for the Observed efficacy with Botrytis cinerea (1 ppm) and with Pyricularia oryzae (4 ppm) were 55% and 35%, respectively.

Consider `CC1COC(Cn2cncn2)(c2ccc(Oc3ccc(Cl)cc3)cc2Cl)O1` (stereo not shown) [Difenoconazol, 1-[2-[4-(4-chlorophenoxy)-2-chlorophenyl]-4-methyl-1,3-dioxolan-2-ylmethyl]-1H-1,2,4-triazole], for which the Observed efficacy is 30% in the experiment on Botrytis cinerea (0.25 ppm) and 15% in the experiment with Pyricularia oryzae (1 ppm).
